Test results taken from PubChem BioAssay (NCI).
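GI50 marks 50% less growth. The concentration for full growth arrest is given as TGI.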

What was measured:
Assay in all cases: DTP human tumour cell line panel, 384-well format
OVCAR-4 ovarian = tested on: OVCAR-4 ovarian
HCC-2998 colon = tested on: HCC-2998 colon
HCT-15 colon = tested on: HCT-15 colon
UACC-257 melanoma = tested on: UACC-257 melanoma
UACC-62 melanoma = tested on: UACC-62 melanoma
RXF 393 renal = tested on: RXF 393 renal
HL-60(TB) leukemia = tested on: HL-60(TB) leukemia
SF-268 CNS = tested on: SF-268 CNS
ACHN renal = tested on: ACHN renal
M14 melanoma = tested on: M14 melanoma
HS 578T breast = tested on: HS 578T breast
A498 renal = tested on: A498 renal
SN12C renal = tested on: SN12C renal
T-47D breast = tested on: T-47D breast
TK-10 renal = tested on: TK-10 renal
RPMI-8226 leukemia = tested on: RPMI-8226 leukemia
A549 NSCLC = tested on: A549 NSCLC
SK-MEL-5 melanoma = tested on: SK-MEL-5 melanoma
NCI/ADR-RES ovarian = tested on: NCI/ADR-RES ovarian
MALME-3M melanoma = tested on: MALME-3M melanoma
SK-MEL-28 melanoma = tested on: SK-MEL-28 melanoma
NCI-H23 lung = tested on: NCI-H23 lung
NCI-H460 NSCLC = tested on: NCI-H460 NSCLC
MOLT-4 leukemia = tested on: MOLT-4 leukemia
UO-31 renal = tested on: UO-31 renal
OVCAR-8 ovarian = tested on: OVCAR-8 ovarian
K-562 leukemia = tested on: K-562 leukemia
CAKI-1 renal = tested on: CAKI-1 renal

SMILES: CCN1Cc2c(ccc(F)c2C#N)O[C@@H](C)CNC(=O)c2c(N)nn3ccc1nc23
- GI50 (OVCAR-4 ovarian): 2.4 µM
- TGI (OVCAR-4 ovarian): 17.3 µM
- GI50 (HCC-2998 colon): 4.12 µM
- TGI (HCC-2998 colon): 20.9 µM
- GI50 (HCT-15 colon): 0.757 µM
- TGI (HCT-15 colon): 10.3 µM
- GI50 (UACC-257 melanoma): 1.02 µM
- TGI (UACC-257 melanoma): 4.89 µM
- GI50 (UACC-62 melanoma): 0.454 µM
- TGI (UACC-62 melanoma): 2.52 µM
- GI50 (RXF 393 renal): 1.32 µM
- TGI (RXF 393 renal): 7.18 µM
- GI50 (HL-60(TB) leukemia): 1.14 µM
- TGI (HL-60(TB) leukemia): 3.01 µM
- GI50 (SF-268 CNS): 1.76 µM
- TGI (SF-268 CNS): 11.9 µM
- GI50 (ACHN renal): 0.385 µM
- TGI (ACHN renal): 2.06 µM
- GI50 (M14 melanoma): 0.364 µM
- TGI (M14 melanoma): 1.85 µM
- GI50 (HS 578T breast): 0.381 µM
- TGI (HS 578T breast): 1.95 µM
- GI50 (A498 renal): 0.379 µM
- TGI (A498 renal): 7.56 µM
- GI50 (SN12C renal): 0.613 µM
- TGI (SN12C renal): 4.69 µM
- GI50 (T-47D breast): 0.946 µM
- TGI (T-47D breast): 12.3 µM
- GI50 (TK-10 renal): 0.868 µM
- TGI (TK-10 renal): 6.62 µM
- GI50 (RPMI-8226 leukemia): 0.205 µM
- TGI (RPMI-8226 leukemia): 0.598 µM
- GI50 (A549 NSCLC): 0.585 µM
- TGI (A549 NSCLC): 12.1 µM
- GI50 (SK-MEL-5 melanoma): 0.395 µM
- TGI (SK-MEL-5 melanoma): 5.31 µM
- GI50 (NCI/ADR-RES ovarian): 3.89 µM
- TGI (NCI/ADR-RES ovarian): 15.8 µM
- GI50 (MALME-3M melanoma): 0.436 µM
- TGI (MALME-3M melanoma): 2.41 µM
- GI50 (SK-MEL-28 melanoma): 0.62 µM
- TGI (SK-MEL-28 melanoma): 3.76 µM
- GI50 (NCI-H23 lung): 0.264 µM
- TGI (NCI-H23 lung): 3.48 µM
- GI50 (NCI-H460 NSCLC): 0.426 µM
- TGI (NCI-H460 NSCLC): 11.4 µM
- GI50 (MOLT-4 leukemia): 0.198 µM
- TGI (MOLT-4 leukemia): 0.478 µM
- GI50 (UO-31 renal): 2.65 µM
- TGI (UO-31 renal): 16.3 µM
- GI50 (OVCAR-8 ovarian): 2.74 µM
- TGI (OVCAR-8 ovarian): 13.8 µM
- GI50 (K-562 leukemia): 0.0664 µM
- TGI (K-562 leukemia): 0.222 µM
- GI50 (CAKI-1 renal): 0.523 µM
- TGI (CAKI-1 renal): 1.84 µM
